Laboratory results: the supplement of paper PMC10307832

Legend:
Experiment in all cases: relative viability (nuclei count vs DMSO), 5 days (fraction); higher = more cells survive
[1] = compound: CNC(=O)c1cc(Oc2ccc(NC(=O)Nc3ccc(Cl)c(C(F)(F)F)c3)cc2)ccn1 [Sorafenib] + CC1(C)CCC(c2ccc(Cl)cc2)=C(CN2CCN(c3ccc(C(=O)NS(=O)(=O)c4ccc(N[C@H](CCN5CCOCC5)CSc5ccccc5)c(S(=O)(=O)C(F)(F)F)c4)cc3)CC2)C1 [Navitoclax] (partner 0.5 µM)
Summary of the method: (§1)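 Medians of duplicate plates are given as relative viability. That measure is the nuclei count in treated wells divided by the count in vehicle wells. Counts were taken on 4× images of lung cancer cell lines in 1536-well plates, 5 days after pin-tool dosing the day after seeding with one drug alone or a fixed anchor-drug dose plus five library-drug doses (not always all listed) in √10 steps.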

[2] = compound: CNC(=O)c1cc(Oc2ccc(NC(=O)Nc3ccc(Cl)c(C(F)(F)F)c3)cc2)ccn1 [Sorafenib] + COc1cc2c(Oc3ccc(NC(=O)C4(C(=O)Nc5ccc(F)cc5)CC4)cc3F)ccnc2cc1OCCCN1CCOCC1 [Foretinib] (partner 0.25 µM)
Summary of the method: as §1

[3] = compound: CNC(=O)c1cc(Oc2ccc(NC(=O)Nc3ccc(Cl)c(C(F)(F)F)c3)cc2)ccn1 [Sorafenib] + COc1cccc2cc(-c3nc([C@H]4CC[C@H](C(=O)O)CC4)n4ncnc(N)c34)[nH]c12 [OSI-027] (partner 0.5 µM)
Summary of the method: as §1

[4] = compound: CNC(=O)c1cc(Oc2ccc(NC(=O)Nc3ccc(Cl)c(C(F)(F)F)c3)cc2)ccn1 [Sorafenib] + Cc1nc(NC(=O)N2CCC[C@H]2C(N)=O)sc1-c1ccnc(C(C)(C)C(F)(F)F)c1 [Alpelisib] (partner 2 µM)
Summary of the method: as §1

[5] = compound: CNC(=O)c1cc(Oc2ccc(NC(=O)Nc3ccc(Cl)c(C(F)(F)F)c3)cc2)ccn1 [Sorafenib] + O=C(c1cc(Cc2n[nH]c(=O)c3ccccc23)ccc1F)N1CCN(C(=O)C2CC2)CC1 [Olaparib] (partner 8 µM)
Summary of the method: as §1

| Cell Line | relative viability ([1]; first compound 0.08 µM) | relative viability ([1]; first compound 0.253 µM) | relative viability ([1]; first compound 2.53 µM) | relative viability ([1]; first compound 8 µM) | relative viability ([2]; first compound 0.08 µM) | relative viability ([2]; first compound 0.253 µM) | relative viability ([2]; first compound 2.53 µM) | relative viability ([2]; first compound 8 µM) | relative viability ([3]; first compound 0.08 µM) | relative viability ([3]; first compound 0.253 µM) | relative viability ([3]; first compound 2.53 µM) | relative viability ([3]; first compound 8 µM) | relative viability ([4]; first compound 0.08 µM) | relative viability ([4]; first compound 0.253 µM) | relative viability ([4]; first compound 2.53 µM) | relative viability ([4]; first compound 8 µM) | relative viability ([5]; first compound 0.08 µM) | relative viability ([5]; first compound 0.253 µM) | relative viability ([5]; first compound 2.53 µM) | relative viability ([5]; first compound 8 µM) |
| --- | --- | --- | --- | --- | --- | --- | --- | --- | --- | --- | --- | --- | --- | --- | --- | --- | --- | --- | --- | --- |
| NCI-H1755 | 1.02 | 0.987 | 0.924 | 0.705 | 0.926 | 0.863 | 0.921 | 0.729 | 0.718 | 0.639 | 0.746 | 0.666 | 0.977 | 0.93 | 0.857 | 0.694 | 0.912 | 0.797 | 0.856 | 0.748 |
| NCI-H1793 | 0.569 | 0.476 | 0.932 | 0.39 | 0.76 | 0.853 | 1.12 | 0.798 | 0.29 | 0.303 | 0.299 | 0.162 |  | 0.727 | 1.01 | 0.511 | 1.05 | 0.836 | 0.84 | 0.661 |
| NCI-H1915 | 0.785 | 0.706 | 0.681 | 0.798 | 1.08 | 0.969 | 1.03 | 1.09 | 0.659 | 0.558 | 0.682 | 0.512 | 0.998 | 0.922 | 0.909 | 1.07 | 0.283 | 0.226 | 0.266 | 0.271 |
| NCI-H1944 | 1.06 | 1.06 | 1.18 | 0.872 | 0.92 | 0.97 | 0.946 | 0.747 | 0.4 | 0.381 | 0.436 | 0.334 | 0.882 | 0.909 | 1.01 | 0.706 | 0.391 | 0.379 | 0.382 | 0.35 |
| NCI-H1975 | 1.01 | 1.1 | 1.18 | 0.853 |  | 0.958 | 0.994 | 0.649 | 0.812 | 0.55 | 0.695 | 0.375 | 0.643 | 0.789 | 0.77 | 0.323 | 0.936 | 0.779 | 0.669 | 0.353 |
| NCI-H1993 | 1.07 | 0.973 | 0.914 | 0.753 | 0.778 | 0.746 | 0.86 | 0.543 | 0.477 | 0.517 | 0.504 | 0.435 | 0.684 | 0.7 | 0.666 | 0.674 | 1.12 | 1.2 | 1.22 | 0.751 |
| NCI-H2009 | 1.11 | 1.02 | 1.1 | 0.937 | 1.27 | 1.18 | 1.09 | 0.916 | 0.629 | 0.355 | 0.601 | 0.303 | 1.22 |  | 1.03 | 0.842 | 0.621 | 0.533 | 0.524 | 0.556 |
| NCI-H2023 | 1.02 | 0.984 | 1.01 | 0.978 | 1.18 | 0.795 | 0.972 | 0.591 | 0.51 | 0.338 | 0.387 | 0.19 | 0.659 | 0.603 | 0.613 | 0.438 | 0.45 | 0.477 | 0.465 | 0.115 |
| NCI-H2085 | 1.21 | 1.07 | 1.17 | 0.901 | 0.948 | 0.856 | 0.864 | 0.874 | 0.934 | 0.544 | 0.704 | 0.396 | 0.998 | 0.878 | 0.882 | 0.777 | 0.763 | 0.851 | 1.01 | 0.761 |
| NCI-H2087 | 1.05 | 0.772 | 0.892 | 0.29 | 1.36 | 0.977 | 0.819 | 0.632 | 0.658 | 0.556 | 0.455 | 0.3 | 0.88 | 0.81 | 0.924 | 0.341 | 0.717 | 0.566 | 0.501 | 0.116 |
| NCI-H2126 | 0.892 | 0.782 | 0.888 | 0.867 | 1.26 | 1.09 | 1.1 | 1.2 | 0.824 | 0.665 | 0.712 | 0.703 | 0.788 | 0.743 | 0.855 |  | 0.935 | 0.851 | 0.96 | 0.913 |
| NCI-H2170 | 0.615 | 0.57 | 0.64 | 0.502 | 1.02 | 0.994 | 0.986 | 0.967 | 0.72 | 0.681 | 0.647 | 0.51 | 0.792 | 0.843 | 0.865 | 0.754 | 0.63 | 0.577 | 0.556 | 0.365 |
| NCI-H2228 | 0.784 | 0.706 | 0.828 | 0.477 | 0.993 | 0.714 | 0.819 | 0.543 | 0.626 | 0.607 |  | 0.365 | 0.863 | 0.753 | 0.694 | 0.64 | 0.868 | 0.46 | 0.532 | 0.294 |
| NCI-H2347 | 0.932 | 0.676 | 0.84 | 0.815 | 1.41 | 0.673 | 0.953 | 0.775 | 0.48 | 0.378 | 0.458 | 0.391 | 1.2 | 0.89 |  | 1 | 0.675 | 0.502 | 0.503 | 0.519 |
| NCI-H2405 | 1.16 | 0.88 | 0.7 | 0.348 | 1.14 | 1.04 | 1.07 | 0.92 | 0.679 | 0.662 | 0.731 | 0.546 | 1 | 0.857 | 0.627 | 0.423 | 0.891 | 0.852 | 0.887 | 0.807 |
| NCI-H3122 | 1.04 | 1.06 | 1.03 | 0.753 | 0.985 | 0.993 | 1.01 | 0.618 | 0.99 | 0.898 | 0.805 | 0.378 | 0.799 | 0.971 | 0.79 | 0.409 | 0.639 | 0.611 | 0.6 | 0.53 |
